Among the test systems are NCI-H522 lung; MOLT-4 leukemia; A549 NSCLC; KM12 colon; SK-MEL-5 melanoma; OVCAR-8 ovarian; NCI-H23 lung; SNB-19 CNS; CCRF-CEM leukemia; SW-620 colon; SF-268 CNS; U251 CNS; SK-OV-3 ovarian.
Holding throughout (assay): NCI tumour cell line growth inhibition, 48 h

Several values for one entry are separate records, joined by “and”; a condition that tells them apart may be missing. Equal entries are not always repeated.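 1) Cells in 96-well plates. 2) Compound, 48 h, 5 concentrations. 3) Linear interpolation between surrounding doses. 4) Unreached endpoint = highest concentration. At the GI50, growth is halved. TGI denotes the concentration required for complete inhibition of growth.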

Take `CC(=O)OCC1OC(Nc2ncc(-c3ccc(C)cc3)s2)C(OC(C)=O)C(OC(C)=O)C1OC(C)=O` (centres undefined): the TGI in the assay with NCI-H522 lung was more than 100 µM; in the assay on MOLT-4 leukemia it was 65.3 µM; with A549 NSCLC, more than 100 µM; in the assay on KM12 colon, more than 94.1 µM; with SK-MEL-5 melanoma it was more than 100 µM; in the assay on OVCAR-8 ovarian, more than 100 µM. For the same molecule, the TGI with NCI-H23 lung, in the assay with SNB-19 CNS, with CCRF-CEM leukemia, with SW-620 colon, in the assay with SF-268 CNS and in the assay with U251 CNS was more than 100 µM each time. Also, in the assay on SK-OV-3 ovarian, the TGI is more than 100 µM.
As for `O=[N+]([O-])c1ccc(-n2nnc(C3=NCCCN3)c2-c2ccc(Cl)cc2)cc1`, the TGI with NCI-H522 lung, in the assay on MOLT-4 leukemia, with A549 NSCLC, in the assay with KM12 colon, in the assay with SK-MEL-5 melanoma and in the assay with OVCAR-8 ovarian was more than 100 µM in each case. Further, the TGI in the assay with NCI-H23 lung, in the assay with SNB-19 CNS, in the assay with CCRF-CEM leukemia, in the assay with SW-620 colon, in the assay with SF-268 CNS and in the assay on U251 CNS was more than 100 µM in each case. This molecule also displayed a TGI in the assay on SK-OV-3 ovarian of more than 100 µM.
As for `C=C1C(=O)O[C@H]2[C@H]1[C@@H](OC(=O)C=C(C)C)CC1=C[C@@H](C[C@@]3(C)O[C@@H]23)OC1=O`, the TGI in the assay on NCI-H522 lung was 3.08 µM; in the assay with MOLT-4 leukemia, 77.4 µM; in the assay with A549 NSCLC it was 63 µM and 39.7 µM; in the assay on KM12 colon, 15.7 µM and 29.7 µM; with SK-MEL-5 melanoma, 15 µM; in the assay with OVCAR-8 ovarian, 7.5 µM. Moreover, the TGI with NCI-H23 lung is 13.5 µM; in the assay on SNB-19 CNS, 55.3 µM; with CCRF-CEM leukemia, 1120 µM; in the assay with SW-620 colon, 2.77 µM; in the assay on SF-268 CNS, 35.6 µM and 22.9 µM; in the assay on U251 CNS, 32.2 µM and 42.5 µM. Besides, the TGI in the assay with SK-OV-3 ovarian is 36.9 µM and 43.9 µM. Further, the GI50 with KM12 colon was 10.4 µM; with OVCAR-8 ovarian, 1.99 µM; with SF-268 CNS, 17.5 µM and 5.11 µM; in the assay with U251 CNS, 24 µM; in the assay with SK-OV-3 ovarian it was 25 µM.
For the molecule `COc1ccc(C(=O)C(CO)Oc2ccccc2OC)cc1OC` (centres undefined), the TGI in the assay with NCI-H522 lung, with MOLT-4 leukemia, in the assay with A549 NSCLC, in the assay on KM12 colon, in the assay with SK-MEL-5 melanoma and in the assay with OVCAR-8 ovarian was more than 100 µM in each case. The TGI in the assay with NCI-H23 lung, in the assay on SNB-19 CNS, with CCRF-CEM leukemia, in the assay with SW-620 colon, in the assay with SF-268 CNS and with U251 CNS was more than 100 µM in each case. In addition, in the assay on SK-OV-3 ovarian, the TGI was more than 100 µM.
For `COc1cc2c(cc1OC)C(O)[C@H](Br)C(C)(C)O2` (some centres undefined), the TGI in the assay on NCI-H522 lung, in the assay with MOLT-4 leukemia, with A549 NSCLC, in the assay on KM12 colon, with SK-MEL-5 melanoma and with OVCAR-8 ovarian was more than 100 µM each time. In addition, the TGI in the assay on NCI-H23 lung, in the assay with SNB-19 CNS, in the assay with CCRF-CEM leukemia, in the assay with SW-620 colon, in the assay on SF-268 CNS and with U251 CNS was more than 100 µM in each case. Further, in the assay on SK-OV-3 ovarian, the TGI is more than 100 µM.
In the case of `CCN1c2nc3ccccc3nc2N(CC)c2nc3ccccc3nc21`, the TGI with NCI-H522 lung, with MOLT-4 leukemia, with A549 NSCLC, in the assay with KM12 colon, in the assay with SK-MEL-5 melanoma and in the assay with OVCAR-8 ovarian was more than 100 µM throughout. For the same molecule, the TGI in the assay with NCI-H23 lung, in the assay on SNB-19 CNS, in the assay with CCRF-CEM leukemia, in the assay on SW-620 colon, with SF-268 CNS and in the assay with U251 CNS was more than 100 µM in each case. In the assay with SK-OV-3 ovarian, the TGI is more than 100 µM.
As to `C=CCn1c(=O)n(CC=C)c(=O)n(CC=C)c1=O`, the TGI in the assay with NCI-H522 lung, in the assay with MOLT-4 leukemia, in the assay with A549 NSCLC, with KM12 colon, with SK-MEL-5 melanoma and in the assay on OVCAR-8 ovarian was more than 100 µM throughout. In addition, the TGI in the assay with NCI-H23 lung, with SNB-19 CNS, in the assay with CCRF-CEM leukemia, in the assay on SW-620 colon, in the assay with SF-268 CNS and in the assay with U251 CNS was more than 100 µM throughout. The TGI in the assay on SK-OV-3 ovarian is more than 100 µM.
Take `CCOC(=O)c1nc2c(Cl)c3ncccc3cc2[nH]c1=O`: the TGI is more than 100 µM with NCI-H522 lung; 45.6 µM in the assay on MOLT-4 leukemia; more than 100 µM with A549 NSCLC; more than 100 µM in the assay with KM12 colon; 22.7 µM in the assay with SK-MEL-5 melanoma; more than 100 µM with OVCAR-8 ovarian. Moreover, the TGI in the assay with NCI-H23 lung, in the assay with SNB-19 CNS, in the assay on CCRF-CEM leukemia, in the assay with SW-620 colon, in the assay with SF-268 CNS and in the assay with U251 CNS was more than 100 µM throughout. The molecule further came in with a TGI in the assay with SK-OV-3 ovarian of more than 100 µM.

The values are drawn from PubChem BioAssay (NCI).
